PubChem BioAssay AID2401 (Southern Research Specialized Biocontainment Screening …, 2010)

Test system: S. Typhimurium GFP reporter counter-screen, fluorescence, 4 h
Assay: nmpC-GFP reporter counter-screen in S. Typhimurium, dose response, counter-screen for PhoP regulon inhibitor project, Salmonella Typhimurium, GFP fluorescence (AID 2401);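 note: S. typhimurium with Mg-insensitive nmpC-GFP reporter grown at 10 µM Mg2+; drop in reporter fluorescence reflects general culture growth inhibition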

## Oc1c(Br)cc(Br)cc1C=NCc1ccccc1
  IC50: 99.2 µM

## O=C(/C=C/c1ccccc1Cl)c1ccccc(=O)c1O
  IC50: 23.8 µM

## Cc1ccc(Nc2cc(C)nn2-c2nc(C)cc(=O)[nH]2)cc1
  IC50: 13.1 µM

## O=C(Nc1cccc(N=Cc2cc(Br)cc(Br)c2O)c1)c1ccco1
  IC50: 104 µM

## C[C@H]1c2cccc(O)c2C(O)=C2C(=O)C3(O)C(O)=C(C(N)=O)C(=O)[C@@H](N(C)C)[C@@H]3[C@@H](O)[C@@H]21 (stereo not given in full)
  IC50: 3.63 µM

## CCCCCCCSc1cc(OC)c(CCN(C)C)cc1OC
  IC50: 57.2 µM

## CCCC(=O)NC(c1ccc(C)cc1)c1ccc2cccnc2c1O (stereo not given)
  IC50: 100 µM

## CCCCCCCCn1c2c(c(=N)c3ccccc31)CCC2
  IC50: 38.9 µM

## CCN(CC)CCOc1ccc2c(c1)C(=NNC(=O)c1ccccn1)c1cc(OCCN(CC)CC)ccc1-2
  IC50: 38.1 µM

## Oc1ccc(Cl)cc1Cc1cc(Cl)ccc1O
  IC50: 38.6 µM

## O=S1(=O)N=C(N/N=C/c2ccccn2)c2ccccc21
  IC50: 19.3 µM

## O=c1[nH][nH]c(-c2ccccc2O)c1C(C[N+](=O)[O-])c1ccc(Br)cc1 (stereo not given)
  IC50: 51.7 µM

## O=C(N/N=C/c1cc(Cl)ccc1O)c1ccncc1
  IC50: 20.6 µM

## O=C(Oc1c(CN2CCOCC2)cc(Cl)c2cccnc12)c1ccc(F)cc1
  IC50: 136 µM

## CN(C)[C@@H]1C(=O)C(C(N)=O)=C(O)[C@@]2(O)C(=O)C3=C(O)c4c(O)cccc4[C@@](C)(O)C3[C@H](O)C12 (stereo not given in full)
  IC50: 0.79 µM

## CCOC(=O)N1CCN(C(c2cccnc2)c2ccc3cccnc3c2O)CC1 (stereo not given)
  IC50: 41.8 µM

## Nc1ncn(C2O[C@H](CO)[C@@H](O)[C@H]2O)c(=O)n1 (stereo not given in full)
  IC50: 30.8 µM

## Oc1c(CN2CCOCC2)cc(COCc2ccccc2)c2cccnc12
  IC50: 69.5 µM

## CNC[C@H](Cc1ccccc1)NC[C@@H](Cc1cccc2ccccc12)NCCc1ccc(C)cc1
  IC50: 26.2 µM

## C=CCc1cccc(C2Nc3ccccc3C(=O)N2O)c1O (stereo not given)
  IC50: 80.9 µM

## Cc1nc2c(=O)n(C)c(=O)n(C)c2nc1Cl
  IC50: 106 µM

## CCn1cc(C(=O)O)c(=O)c2cc(F)c(N3CCN(C(=O)Nc4ccccc4)CC3)cc21
  IC50: 75.2 µM

## O=[N+]([O-])c1cc(F)c2cccnc2c1O
  IC50: 9.05 µM

## CCn1cc(C(=O)O)c(=O)c2cc(F)c(N3CCN(C(=S)Nc4ccccc4OC)CC3)cc21
  IC50: 38.8 µM

## Oc1ccc(CN2CCc3ccccc3C2)c2cccnc12
  IC50: 18.5 µM

## Cc1scc(C(=O)N/N=C/c2ccc([N+](=O)[O-])o2)c1C
  IC50: 114 µM

## O=c1[nH]c2ccccc2n2c(=S)[nH]nc12
  IC50: 37.5 µM

## CCCCCCCCNc1ncnc2ccccc12
  IC50: 150 µM

## O=C(N/N=C/c1ccc([N+](=O)[O-])s1)C(O)c1ccccc1 (stereo not given)
  IC50: 49 µM

## COc1nsnc1NS(=O)(=O)c1ccc(NC(=S)NC(=O)c2cccnc2)cc1
  IC50: 42.6 µM
